Reference: patent US20150285812A1, “Fluorescence-Labelled Fatty Acids and Uses Thereof” (SANOFI, priority 2012, published 2015)
One block for each molecule: values may come before it.

Columns and labels:
[1] = log D7.4 determination by RP-HPLC, similar to the water/octanol partition coefficient method; format: physicochemical; conditions: pH 7.4, RP-HPLC C18, range −1 to +6
Description: log D7.4 values were determined by a method similar to the partition coefficient method in a water/octanol mixture and were carried out on an RP-HPLC from Waters Alliance (2795) having a C18 column (2×20 mm) with a gradient of morpholinesulfonic acid buffer (pH 7.4) and acetonitrile. The range was between −1 ([…]) to +6 (lipophilic).

[2] = biological target: T1, HSA (Homo sapiens, UniProt P02768); assay: Fluorescence of NBD and dansyl dyes with increasing HSA (FRET effect, emission maxima); format: binding; conditions: for change in fluorescence intensity with increasing HSA concentration: HSA 1.56 to 200 μM, pH 7.4
T1 construct: purchased Sigma Aldrich A1887
Description: Absorption and fluorescence of fluorescence-labelled derivatives and HSA were carried out in a Varioskan™ microplate reader (Thermo Electron Corporation). 96 well (Costar, half area, flat bottom) microplates were used for absorption measurements and 384 well (Greiner Bio One, small volume, black) microplates from Greiner Bio One were used for fluorescence measurements. All measurements were carried out at pH 7.4 and room temperature.
5.00 ml of a 400 μM solution were prepared from the HSA stock solution. From this solution a geometric dilution series with 7 dilution steps, a dilution factor of 0.5 and a final volume of each concentration of 2.5 ml were prepared.
Defined concentrations of the fluorescence-labelled compounds were selected from the preceding experiment without HSA above and double-concentrated solutions thereof were prepared to take into account the later 1:1 dilution. For each fluorescence-labelled compound (12-17; 19-25) 1.00 ml of these double-concentrations was prepared. 50 μl of the dye solutions were introduced into a 96 well microplate and 50 μl each of the HSA dilution series were added. By mixing the solutions the concentrations of dye derivatives and the HSA solution were halved. The measurements of the absorption and fluorescence were carried out in analogy to the above experimental procedure without HSA.
In analogy to the absorption measurement the effect of HSA on the fluorescence of the dyes (12-17; 19-25) was determined. The same concentrations of NBD and dansyl dyes and the same concentration range for HSA as already described above were used.

[3] = biological target: T1, HSA; assay: Job plot of the fluorescence: stoichiometry of labelled fatty acids to HSA; format: binding; conditions: maximum in the curve or none
Description: The stoichiometry of NBD- and dansyl-labelled fatty acids bound to HSA was determined by Job plots, also called the “method of continuous variability” as different mole fractions of the respective binding partners are mixed with one another and then measured spectroscopically. Solutions of equimolar concentrations of HSA and dye were mixed such that the mole fractions of the substances were varied but the total molarity of the sample solution stayed constant. For short NBD derivatives C2 to C6 (12-14) no binding to HSA was confirmed, whereas binding ratios for long NBD derivatives C8 to C12 (15-17) to HSA were 1:1. For short dansyl derivatives C2 to C8 (19-22) binding ratios for HSA were 2:1, whereas the long dansyl derivatives C10 and C12 (23-24) bound to HSA in the ratio of 4:1. The finding that even dansyl C2 (19) was bound to HSA led to the question as to what extent the dansyl label itself is recognized by HSA. Because even dansyl methylamide (25) bound to HSA, even though it lacks a carboxyl group, it seems that the dye label could also bind to HSA.
For the Job plot the dye and HSA solutions were employed in equimolar amounts. 10.00 ml of 100 μM HSA solution and in each case 2.00 ml of a 100 μM dye solution (12-17; 19-25) were prepared from the above stock solutions. For the Job plot method the dye solutions were mixed with the HSA solution in different ratios as described below in Table 8. […] According to the same dilution scheme the dye solutions were also mixed with DPBS buffer for measuring the blank values of the fluorescence-labelled derivatives (see K. C. Ingham, Analytical Biochemistry 68 (1975) 660-663). […] Absorption was not measured. A fluorescence measurement without a wavelength scan was also carried out in analogy to the above experiment without HSA.
For NBD derivatives (12-17) and HSA 100 μM solutions were used. […] In total 11 solutions per dye derivative were prepared for fluorescence measurement by mixing the two binding partners. […] The fluorescence intensities were plotted against the mole fractions of the binding partners. […]

[4] = biological target: T1, HSA; assay: Displacement of NBD derivatives on HSA by natural fatty acids C6 to C16 (fluorescence); format: binding; set-up: key to displacement of NBD C8 (15) bound to HSA / displacement of NBD C10 (16) bound to HSA / displacement of NBD C12 (17) bound to HSA: + stands for displacement; − for no displacement; conditions: for relative binding affinity of the NBD dye for HSA: ranking among NBD C8, C10 and C12 from the competition experiments
Description: Dilution series for competition experiments with the fatty acids C6 to C16 were diluted with phosphate-buffered saline solution (DPBS buffer). Geometric dilution series of each fatty acid were prepared in 384 well microplates with a starting concentration of 2500 μM and a dilution factor of 0.33 and also 9 dilution steps. The final volume of each concentration was 80 μl. The plated-out fatty acids were stored in the deep freeze (−25° C.) until use.
For displacement experiments 2.50 ml of a 25 μM HSA solution were used per dye derivative. Due to the subsequent dilution steps the HSA concentration was doubled twice such that 2.50 ml of […] solution were prepared.
The dye concentrations were also doubled twice by the following dilution steps. 2.50 ml of each dye solution were needed. 2.10 ml of the respective dye solution were then mixed with 2.10 ml of the 100 μM HSA solution. The respective concentrations of the solutions halve here once. 50 μl of the mixture per well were introduced into a 96 well microplate.
The fatty acid microplates were brought to room temperature and 50 μl each of the dilution series were pipetted into the HSA-dye mixture. The concentrations of all solution constituents were thereby halved once again. In analogy to the experiments measuring the fluorescence of the fluorescence-labelled derivatives without HSA above, the solutions were pipetted from the 96 well microplate into a 384 well microplate. Absorption was not measured. The fluorescence measurement without a wavelength scan was carried out in analogy to the above-referenced experiment.
A concentration of 25 μM and a binding ratio of the NBD derivatives to HSA of 1:1 were employed for the displacement studies. For each dye derivative an NBD-HSA mixture with a concentration of 25 μM was prepared.

[5] = dansyl compound 100 μM, λex = 330 nm
[6] = NBD-HSA mixture 25 μM, 1:1, competitor natural fatty acid
[7] = NBD compound 25 μM, λex = 480 nm
[8] = NBD derivatives 25 μM, 480-550 nm

T1 sequence (P02768 25-609): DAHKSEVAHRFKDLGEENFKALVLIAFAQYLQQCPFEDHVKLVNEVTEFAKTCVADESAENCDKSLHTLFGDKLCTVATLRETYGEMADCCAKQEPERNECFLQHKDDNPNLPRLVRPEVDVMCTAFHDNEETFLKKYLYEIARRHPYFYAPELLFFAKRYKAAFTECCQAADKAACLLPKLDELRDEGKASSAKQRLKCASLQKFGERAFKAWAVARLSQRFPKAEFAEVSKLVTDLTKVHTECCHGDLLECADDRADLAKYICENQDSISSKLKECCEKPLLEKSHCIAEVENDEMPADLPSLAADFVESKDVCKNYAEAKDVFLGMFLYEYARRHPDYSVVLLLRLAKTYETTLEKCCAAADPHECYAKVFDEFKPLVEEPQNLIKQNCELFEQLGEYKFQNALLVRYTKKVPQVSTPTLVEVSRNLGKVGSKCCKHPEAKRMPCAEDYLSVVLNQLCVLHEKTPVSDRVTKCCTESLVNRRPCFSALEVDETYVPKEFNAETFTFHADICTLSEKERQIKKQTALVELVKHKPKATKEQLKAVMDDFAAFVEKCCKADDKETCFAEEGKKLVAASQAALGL

Structure (SMILES): CNS(=O)(=O)c1cccc2c(N(C)C)cccc12 [DMA (25), 5-Dimethylaminonaphthalene-1-sulfonic acid methylamide]
- chromatographic logD [1]: 2.76
- Δλ, shift of emission maximum λem without HSA vs with HSA [2, 5]: 80 nm
- change in fluorescence intensity with increasing HSA concentration ([2]; dansyl derivatives 100 μM, 330-560 nm): smallest fluorescence increase
- binding to HSA (qualitative) [3]: binds to HSA
- binding to HSA (qualitative) ([3]; listed as dansyl methylamide (25)): bound to HSA

Structure (SMILES): CCCCCC(=O)O [FA C6, caproic acid]
- displacement of NBD C8 (15) bound to HSA [4, 6]: −
- displacement of NBD C8 (15) from HSA [4, 6]: did not displace
- displacement of NBD C10 (16) bound to HSA [4, 6]: −
- displacement of NBD C10 (16) from HSA [4, 6]: not displaced
- displacement of NBD C12 (17) bound to HSA [4, 6]: −

Structure (SMILES): O=C(O)CNc1ccc([N+](=O)[O-])c2nonc12 [NBD C2 (12), 2-(7-nitrobenzo[1,2,5]oxadiazol-4-ylamino)ethanoic acid]
- log D7.4 [1]: < −1
- Δλ, shift of emission maximum λem without HSA vs with HSA [2, 7]: 0 nm
- change in fluorescence intensity with increasing HSA concentration [2, 8]: no changes in fluorescence intensity

Structure (SMILES): O=C(O)CCCNc1ccc([N+](=O)[O-])c2nonc12 [NBD C4 (13), 4-(7-Nitrobenzo[1,2,5]oxadiazol-4-ylamino)butanoic acid]
- log D7.4 [1]: −0.46
- Δλ, shift of emission maximum λem without HSA vs with HSA [2, 7]: 2 nm
- change in fluorescence intensity with increasing HSA concentration [2, 8]: no changes in fluorescence intensity

Structure (SMILES): O=C(O)CCCCCNc1ccc([N+](=O)[O-])c2nonc12 [NBD C6 (14), 6-(7-Nitrobenzo[1,2,5]oxadiazol-4-ylamino)hexanoic acid]
- chromatographic logD [1]: 0.53
- Δλ, shift of emission maximum λem without HSA vs with HSA [2, 7]: 0 nm
- change in fluorescence intensity with increasing HSA concentration [2, 8]: no changes in fluorescence intensity

Structure (SMILES): O=C(O)CCCCCCCNc1ccc([N+](=O)[O-])c2nonc12 [NBD C8 (15), 8-(7-Nitrobenzo[1,2,5]oxadiazol-4-ylamino)octanoic acid]
- chromatographic logD [1]: 1.29
- Δλ, shift of emission maximum λem without HSA vs with HSA [2, 7]: 10 nm
- change in fluorescence intensity with increasing HSA concentration [2, 8]: greatest increase in fluorescence intensity
- relative binding affinity of the NBD dye for HSA [4]: lowest affinity

Structure (SMILES): O=C(O)CCCCCCCCCNc1ccc([N+](=O)[O-])c2nonc12 [NBD C10 (16), 10-(7-Nitrobenzo[1,2,5]oxadiazol-4-ylamino)decanoic acid]
- chromatographic logD [1]: 2.03
- Δλ, shift of emission maximum λem without HSA vs with HSA [2, 7]: 16 nm
- change in fluorescence intensity with increasing HSA concentration [2, 8]: increase in fluorescence intensity
- relative binding affinity of the NBD dye for HSA [4]: minimally smaller
- relative binding affinity of the NBD dye for HSA ([4]; listed as NBD C10): binding strength which lies between these two

Structure (SMILES): CN(C)c1cccc2c(S(=O)(=O)NCC(=O)O)cccc12 [dansyl C2 (19), (5-Dimethylaminonaphthalene-1-sulfonylamino)ethanoic acid]
- chromatographic logD [1]: 1.02
- Δλ, shift of emission maximum λem without HSA vs with HSA [2, 5]: 94 nm
- binding to HSA (qualitative) [3]: bound to HSA

Structure (SMILES): CN(C)c1cccc2c(S(=O)(=O)NCCCC(=O)O)cccc12 [dansyl C4 (20), 4-(5-Dimethylaminonaphthalene-1-sulfonylamino)butanoic acid]
- chromatographic logD [1]: 1.21
- Δλ, shift of emission maximum λem without HSA vs with HSA [2, 5]: 88 nm

Structure (SMILES): CN(C)c1cccc2c(S(=O)(=O)NCCCCCC(=O)O)cccc12 [dansyl C6 (21), 6-(5-Dimethylaminonaphthalene-1-sulfonylamino)hexanoic acid]
- chromatographic logD [1]: 1.56
- Δλ, shift of emission maximum λem without HSA vs with HSA [2, 5]: 82 nm

Structure (SMILES): CN(C)c1cccc2c(S(=O)(=O)NCCCCCCCC(=O)O)cccc12 [dansyl C8 (22), 8-(5-Dimethylaminonaphthalene-1-sulfonylamino)octanoic acid]
- chromatographic logD [1]: 2.1
- Δλ, shift of emission maximum λem without HSA vs with HSA [2, 5]: 74 nm

Structure (SMILES): CN(C)c1cccc2c(S(=O)(=O)NCCCCCCCCCC(=O)O)cccc12 [dansyl C10 (23), 10-(5-Dimethylaminonaphthalene-1-sulfonylamino)decanoic acid]
- chromatographic logD [1]: 2.74
- Δλ, shift of emission maximum λem without HSA vs with HSA [2, 5]: 68 nm

Structure (SMILES): CN(C)c1cccc2c(S(=O)(=O)NCCCCCCCCCCCC(=O)O)cccc12 [dansyl C12 (24), 12-(5-Dimethylaminonaphthalene-1-sulfonylamino)dodecanoic acid]
- chromatographic logD [1]: 3.49
- log D7.4 [1]: 3.49
- Δλ, shift of emission maximum λem without HSA vs with HSA [2, 5]: 66 nm

Second part, the molecule after the results:

- displacement of NBD C8 (15) bound to HSA [4, 6]: +
- displacement of NBD C8 (15) from HSA [4, 6]: displaced
- displacement of NBD C10 (16) bound to HSA [4, 6]: unclear
- displacement of NBD C12 (17) bound to HSA [4, 6]: −
- displacement of NBD C12 (17) from HSA [4, 6]: no longer capable of displacing
Structure (SMILES): CCCCCCCCCC(=O)O [FA C10, capric acid]

- displacement of NBD C8 (15) bound to HSA [4, 6]: +
- displacement of NBD C8 (15) from HSA [4, 6]: displaced
- displacement of NBD C10 (16) bound to HSA [4, 6]: +
- displacement of NBD C12 (17) bound to HSA [4, 6]: +
- displacement of NBD C12 (17) from HSA [4, 6]: displaced
Structure (SMILES): CCCCCCCCCCCC(=O)O [FA C12, lauric acid]

- displacement of NBD C8 (15) bound to HSA [4, 6]: +
- displacement of NBD C8 (15) from HSA [4, 6]: displaced
- displacement of NBD C10 (16) bound to HSA [4, 6]: +
- displacement of NBD C12 (17) bound to HSA [4, 6]: +
Structure (SMILES): CCCCCCCCCCCCCC(=O)O [FA C14, myristic acid]
